Among the data in patent US10696693B2, “Fused imidazole derivatives as TGF-beta inhibitors” (Rigel Pharmaceuticals, Inc., priority 2014, dated 2020) are IC50 values, retold here.

In one test the test system is GDF8. The experiment in a line: AlphaScreen SureFire p-SMAD3 (Ser423/425) assay, GDF8-stimulated cells. The test is classed as cell-based. As to conditions: Mus musculus. The method, boiled down: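 Lysate (5 μL) went into 384-well shallow plates with 5 μL of Reaction Buffer, Activation Buffer and AlphaScreen Acceptor bead mix. Plates were sealed, kept dark and shaken for 2 hours at room temperature. Donor beads in dilution buffer (2 μL) were added for another 1½ hours, and p-SMAD3 signal was read on a Synergy-4 or Enspire reader.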
On the technique in general: Alpha assays give light when donor and acceptor beads are brought close together.

Another test concerns TGF-β. As to the kind of experiment: AlphaScreen SureFire p-SMAD3 (Ser423/425) assay, TGF-β-stimulated cells. The test is classed as cell-based. As to conditions: Mus musculus. The method, boiled down:
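The p-SMAD-3 (Ser423/425) SureFire assay measured phosphorylation of endogenous SMAD-3 in cell lysates. Cells were plated overnight in collagen-coated plates, exposed to three-fold serially diluted compounds for about 10 minutes, then stimulated with TGFβ. Lysates (5 μL) received acceptor bead mix for 2 hours, then donor beads for 1½ hours before AlphaScreen reading.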

The mark [1] stands for this setting: MPC-11, read-out: GDF8: inhibition of GDF8 signaling, GDF pSMAD (MPC11), p-SMAD3 (Ser423/425) AlphaScreen in cell lysate, GDF8 stimulation.
[2] abbreviates: MPC-11, read-out: TGF-β: inhibition of TGF-β signaling, TGF-β pSMAD (MPC-11), p-SMAD3 (Ser423/425) AlphaScreen in cell lysate, TGF-β stimulation.
Where [3] appears, read: MPC-11, p-SMAD3 (Ser423/425) AlphaScreen in cell lysate, MPC11, GDF8 stimulation, read-out: GDF8: inhibition of GDF8 signaling, GDF pSMAD (MPC11).
Setting [4] is: p-SMAD3 (Ser423/425) AlphaScreen in cell lysate, MPC-11, TGF-β stimulation, read-out: TGF-β: inhibition of TGF-β signaling, TGF-β pSMAD (MPC-11).

Where two headings read alike, the source gives them in different places.

As for `Cc1cc(F)c(-c2nc3n(c2-c2ccc4ncccc4c2)CCC3)cc1F` [Compound 287, 6-(2-(2,5-difluoro-4-methylphenyl)-6,7-dihydro-5H-pyrrolo[1,2-a]imidazol-3-yl)quinoline], the IC50 with GDF8 (setting [1]) and with TGF-β (setting [2]) was greater than 1 µM in each case.
For the compound `Fc1cc(Cl)c(-c2nc3n(c2-c2ccc4[nH]ncc4c2)CCC3)cc1F` [Compound 288, 5-(2-(2-chloro-4,5-difluorophenyl)-6,7-dihydro-5H-pyrrolo[1,2-a]imidazol-3-yl)-1H-indazole], the IC50 with GDF8 (setting [1]) is 0.1 to 1 µM; with TGF-β (setting [2]), greater than 1 µM.
As for `Fc1cc(Cl)c(-c2nc3n(c2-c2ccc4ncsc4c2)CCC3)cc1F` [Compound 289, 6-(2-(2-chloro-4,5-difluorophenyl)-6,7-dihydro-5H-pyrrolo[1,2-a]imidazol-3-yl)benzo[d]thiazole], the IC50 with GDF8 (setting [3]) was less than 0.05 µM; in the test on TGF-β (setting [4]) it was 0.1 to 1 µM.
Take `Fc1cc(Cl)c(-c2nc3n(c2-c2ccc4ncccc4c2)CCC3)cc1F` [Compound 290, 6-(2-(2-chloro-4,5-difluorophenyl)-6,7-dihydro-5H-pyrrolo[1,2-a]imidazol-3-yl)quinoline]: the values for the IC50 with GDF8 (setting [3]) and in the test on TGF-β (setting [4]) were 0.1 to 1 µM and greater than 1 µM, respectively.
`Fc1cc(Cl)c(-c2nc3n(c2-c2ccc4nccnc4c2)CCC3)cc1F` [Compound 291, 6-(2-(2-chloro-4,5-difluorophenyl)-6,7-dihydro-5H-pyrrolo[1,2-a]imidazol-3-yl)quinoxaline]: the figures for the IC50 in the test on GDF8 (setting [1]) and with TGF-β (setting [2]) were 0.05 to 0.1 µM and 0.1 to 1 µM, respectively.
As for `Cc1cc(F)ccc1-c1nc2n(c1-c1ccc3[nH]ncc3c1)CCC2` [Compound 292, 5-(2-(4-fluoro-2-methylphenyl)-6,7-dihydro-5H-pyrrolo[1,2-a]imidazol-3-yl)-1H-indazole], the IC50 in the test with GDF8 (setting [1]) and in the test with TGF-β (setting [2]) was greater than 1 µM in each case.
With `Cc1cc(F)ccc1-c1nc2n(c1-c1ccc3ncsc3c1)CCC2` [Compound 293, 6-(2-(4-fluoro-2-methylphenyl)-6,7-dihydro-5H-pyrrolo[1,2-a]imidazol-3-yl)benzo[d]thiazole], the IC50 in the test on GDF8 (setting [3]) and with TGF-β (setting [4]) was 0.1 to 1 µM each time.
Regarding `Cc1cc(F)ccc1-c1nc2n(c1-c1ccc3nccnc3c1)CCC2` [Compound 294, 6-(2-(4-fluoro-2-methylphenyl)-6,7-dihydro-5H-pyrrolo[1,2-a]imidazol-3-yl)quinoxaline], the IC50 in the test on GDF8 (setting [1]) and in the test with TGF-β (setting [2]) was greater than 1 µM throughout.
In the case of `Cc1cc(F)ccc1-c1nc2n(c1-c1ccc3ncccc3c1)CCC2` [Compound 295, 6-(2-(4-fluoro-2-methylphenyl)-6,7-dihydro-5H-pyrrolo[1,2-a]imidazol-3-yl)quinoline], the IC50 in the test with GDF8 (setting [3]) and with TGF-β (setting [4]) was greater than 1 µM each time.
Consider `Cc1cc(F)c(Cl)cc1-c1nc2n(c1-c1ccc3[nH]ncc3c1)CCC2` [Compound 296, 5-(2-(5-chloro-4-fluoro-2-methylphenyl)-6,7-dihydro-5H-pyrrolo[1,2-a]imidaol-3-yl)-1H-indazole], for which the figures for the IC50 in the test on GDF8 (setting [3]) and in the test on TGF-β (setting [4]) were 0.1 to 1 µM and greater than 1 µM, respectively.
The corresponding values for `Cc1cc(F)c(Cl)cc1-c1nc2n(c1-c1ccc3ncsc3c1)CCC2` [Compound 297, 6-(2-(5-chloro-4-fluoro-2-methylphenyl)-6,7-dihydro-5H-pyrrolo[1,2-a]imidazol-3-yl)benzo[d]thiazole] are 0.1 to 1 µM and 0.1 to 1 µM.
Regarding `Cc1cc(F)c(Cl)cc1-c1nc2n(c1-c1ccc3nccnc3c1)CCC2` [Compound 298, 6-(2-(5-chloro-4-fluoro-2-methylphenyl)-6,7-dihydro-5H-pyrrolo[1,2-a]imidazol-3-yl)quinoxaline], the IC50 was 0.1 to 1 µM in the test with GDF8 (setting [1]) and greater than 1 µM with TGF-β (setting [2]).
The corresponding values for `Cc1cc(F)c(Cl)cc1-c1nc2n(c1-c1ccc3ncccc3c1)CCC2` [Compound 299, 6-(2-(5-chloro-4-fluoro-2-methylphenyl)-6,7-dihydro-5H-pyrrolo[1,2-a]imidazol-3-yl)quinoline] are 0.1 to 1 µM and greater than 1 µM.
The corresponding values for `Cc1ccc(F)cc1-c1nc2n(c1-c1ccc3[nH]ncc3c1)CCC2` [Compound 300, 5-(2-(5-fluoro-2-methylphenyl)-6,7-dihydro-5H-pyrrolo[1,2-a]imidazol-3-yl)-1H-indazole] are greater than 1 µM and greater than 1 µM.
The corresponding values for `Cc1ccc(F)cc1-c1nc2n(c1-c1ccc3ncsc3c1)CCC2` [Compound 301, 6-(2-(5-fluoro-2-methylphenyl)-6,7-dihydro-5H-pyrrolo[1,2-a]imidazol-3-yl)benzo[d]thiazole] are 0.1 to 1 µM and greater than 1 µM.
In the case of `Cc1ccc(F)cc1-c1nc2n(c1-c1ccc3nccnc3c1)CCC2` [Compound 302, 6-(2-(5-fluoro-2-methylphenyl)-6,7-dihydro-5H-pyrrolo[1,2-a]imidazol-3-yl)quinoxaline], the IC50 with GDF8 (setting [1]) and in the test with TGF-β (setting [2]) was greater than 1 µM each time.
As to `Cc1ccc(F)cc1-c1nc2n(c1-c1ccc3ncccc3c1)CCC2` [Compound 303], the IC50 in the test with GDF8 (setting [3]) and in the test on TGF-β (setting [4]) was greater than 1 µM in each case.
In the case of `Cc1ccccc1-c1nc2n(c1-c1ccc3[nH]ncc3c1)CCC2` [Compound 304, 5-(2-(o-tolyl)-6,7-dihydro-5H-pyrrolo[1,2-a]imidazol-3-yl)-1H-indazole], the IC50 in the test on GDF8 (setting [3]) and in the test on TGF-β (setting [4]) was greater than 1 µM in each case.
Take `Cc1ccccc1-c1nc2n(c1-c1ccc3ncsc3c1)CCC2` [Compound 305, 6-(2-(o-tolyl)-6,7-dihydro-5H-pyrrolo[1,2-a]imidazol-3-yl)benzo[d]thiazole]: the values for the IC50 in the test with GDF8 (setting [3]) and in the test with TGF-β (setting [4]) were 0.1 to 1 µM and greater than 1 µM, respectively.
On to `Cc1ccccc1-c1nc2n(c1-c1ccc3nccnc3c1)CCC2` [Compound 306, 6-(2-(o-tolyl)-6,7-dihydro-5H-pyrrolo[1,2-a]imidazol-3-yl)quinoxaline], for which the IC50 with GDF8 (setting [3]) and in the test on TGF-β (setting [4]) was greater than 1 µM in each case.
For `Cc1ccccc1-c1nc2n(c1-c1ccc3ncccc3c1)CCC2` [Compound 307, 6-(2-(o-tolyl)-6,7-dihydro-5H-pyrrolo[1,2-a]imidazol-3-yl)quinoline], the IC50 with GDF8 (setting [3]) and with TGF-β (setting [4]) was greater than 1 µM each time.
Turning to `Cc1cc(-c2nc3n(c2-c2ccc4[nH]ncc4c2)CCC3)c(C)cc1F` [Compound 308, 5-(2-(4-fluoro-2,5-dimethylphenyl)-6,7-dihydro-5H-pyrrolo[1,2-a]imidaol-3-yl)-1H-indazole], the IC50 in the test with GDF8 (setting [3]) was 0.1 to 1 µM; with TGF-β (setting [4]), greater than 1 µM.
For the compound `Cc1cc(-c2nc3n(c2-c2ccc4ncsc4c2)CCC3)c(C)cc1F` [Compound 309, 6-(2-(4-fluoro-2,5-dimethylphenyl)-6,7-dihydro-5H-pyrrolo[1,2-a]imidazol-3-yl)benzo[d]thiazole], the IC50 with GDF8 (setting [1]) and with TGF-β (setting [2]) was 0.1 to 1 µM in each case.
For `Cc1cc(-c2nc3n(c2-c2ccc4nccnc4c2)CCC3)c(C)cc1F` [Compound 310, 6-(2-(4-fluoro-2,5-dimethylphenyl)-6,7-dihydro-5H-pyrrolo[1,2-a]imidazol-3-yl)quinoxaline], the values for the IC50 in the test with GDF8 (setting [1]) and with TGF-β (setting [2]) were 0.1 to 1 µM and greater than 1 µM, respectively.
As to `Cc1cc(-c2nc3n(c2-c2ccc4ncccc4c2)CCC3)c(C)cc1F` [Compound 311, 6-(2-(4-fluoro-2,5-dimethylphenyl)-6,7-dihydro-5H-pyrrolo[1,2-a]imidazol-3-yl)quinoline], the IC50 in the test on GDF8 (setting [3]) was 0.1 to 1 µM; in the test with TGF-β (setting [4]) it was greater than 1 µM.
